Assay results taken from patent US9951149B2, “Reversible heparin molecules and methods of making and using the same” (The University of North Carolina at Chapel Hill, priority 2013, dated 2018).
Entries after “also recorded” stand apart in the source; their conditions may differ.

How the values were obtained:
human factor Xa = experiment: Neutralization of LMWHs by protamine in vitro (anti-Xa activity); type: biochemical; details: human plasma, protamine 0-90 μg/ml (FIG. 4B)
Procedure: Determination of the in vitro and ex vivo anti-Xa activity. Assays were based on a previously published method (Zhang, L. et al., J. Biol. Chem. 276, 42311-42321, 2001; Duncan et al., Biochim Biophys Acta 1671, 34-43, 2004). Briefly, human factor Xa (Enzyme Research Laboratories, South Bend, Ind., United States of America) was diluted to 50 Uml^−1 with PBS. The chromogenic substrates, S-2765 was from Diapharma (Westchester, Ohio, United States of America) and made up at 1 mgml^−1 in water. UFH (from US Pharmacopea), LOVENOX® (from local pharmacy) and LMWH Compounds 1 to 5) was dissolved in PBS at various concentrations (3 to 600 μgml^−1). The reaction mixture, which consisted of 20 μl of human plasma (Sigma-Aldrich, St. Louis, Mo., United States of America) and 8 μl of the solution containing the sample, was incubated at room temperature for 5 min. Factor Xa (100 μl) was then added. After incubating at room temperature for 4 min, 30 μl of S-2765 substrate was added. The absorbance of the reaction mixture was measured at 405 nm continuously for 5 min. The absorbance values were plotted against the reaction time. The initial reaction rates as a function of concentration were used to calculate the IC50 values.
The procedures followed a previous publication (Sundaram, M. et al., Proc. Natl. Acad. Sci. 100, 651-656, 2003). The LMWH Compounds and protamine chloride (Sigma-Aldrich) were dissolved in PBS. The concentrations of the LMWH samples for each Compound were different because each Compound has different IC50 value for the anti-Xa activity. […] The mixture (30 μl) was then subjected to anti-Xa activity measurement as described above.

antithrombin (AT) = antithrombin (AT) (Homo sapiens, UniProt P01008); experiment: Binding affinity of LMWHs to antithrombin by affinity co-electrophoresis; details: 35S-labeled compounds; average of two or three determinations
Chain of antithrombin (AT) (P01008 33-464): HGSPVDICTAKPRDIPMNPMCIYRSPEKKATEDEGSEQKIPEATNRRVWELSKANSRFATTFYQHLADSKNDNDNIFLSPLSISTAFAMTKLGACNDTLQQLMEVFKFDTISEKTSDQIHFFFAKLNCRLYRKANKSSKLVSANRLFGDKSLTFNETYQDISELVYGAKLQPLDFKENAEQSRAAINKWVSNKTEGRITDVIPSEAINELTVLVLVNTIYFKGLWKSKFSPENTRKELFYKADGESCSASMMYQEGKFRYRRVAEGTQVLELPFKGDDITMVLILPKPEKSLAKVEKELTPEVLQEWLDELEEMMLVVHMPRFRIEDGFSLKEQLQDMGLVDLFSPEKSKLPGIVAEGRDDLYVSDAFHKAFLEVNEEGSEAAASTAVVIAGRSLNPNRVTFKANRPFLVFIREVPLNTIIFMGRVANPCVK
Procedure: The dissociation constant (Kd) of each sample and AT was determined using affinity co-electrophoresis (Lee, M. K. & Lander, A. D., Proc. Natl. Acad. Sci. USA 88, 2768-2772, 1991). Approximately 1500-2500 cpm of ^35S-labeled LMWH Compounds 1 to 5 was loaded per lane with zones of AT at concentrations 0, 8, 16, 32, 60, 120, 250, 500 and 1000 nM. The gel was performed at 300 mA for 2 h, dried and analyzed on a Phospholmager (Amersham Biosciences, Wauwatosa, Wis., United States of America Storm 860). The retardation coefficient was calculated at R=(M0−M)/M0, where M0 is the mobility of the polysaccharide through the zone without AT, and M is the mobility of the sample through each separation zone. The retardation coefficient was then plotted against the retardation coefficient divided by its respective concentration of AT. The slope of the line represents −1/Kd.

Structure (SMILES)	in vitro reversibility of anti-Xa activity by protamine (human factor Xa)	Kd (antithrombin (AT))
O=C(O)C1OC(OC2C(COS(=O)(=O)O)OC(OC3C(C(=O)O)OC(OC4C(COS(=O)(=O)O)OC(OC5C(C(=O)O)OC(OC6C(COS(=O)(=O)O)OC(OC7C(C(=O)O)OC(Oc8ccc([N+](=O)[O-])cc8)C(O)C7O)C(NS(=O)(=O)O)C6O)C(OS(=O)(=O)O)C5O)C(NS(=O)(=O)O)C4O)C(OS(=O)(=O)O)C3O)C(NS(=O)(=O)O)C2OS(=O)(=O)O)C(O)C(O)C1OC1OC(COS(=O)(=O)O)C(O)C(O)C1NS(=O)(=O)O (stereo not shown) [Compound 2]	Unlike Compounds 1, 2, and 3, Compound 4 was partially reversed by protamine	8 nM
CC(=O)NC1C(OC2C(C(=O)O)OC(OC3C(COS(=O)(=O)O)OC(OC4C(C(=O)O)OC(OC5C(COS(=O)(=O)O)OC(OC6C(C(=O)O)OC(OC7C(COS(=O)(=O)O)OC(OC8C(C(=O)O)OC(OC9C(COS(=O)(=O)O)OC(OC%10C(C(=O)O)OC(OC%11C(COS(=O)(=O)O)OC(OC%12C(C(=O)O)OC(Oc%13ccc([N+](=O)[O-])cc%13)C(O)C%12O)C(NS(=O)(=O)O)C%11O)C(OS(=O)(=O)O)C%10O)C(NS(=O)(=O)O)C9OS(=O)(=O)O)C(OS(=O)(=O)O)C8O)C(NS(=O)(=O)O)C7O)C(OS(=O)(=O)O)C6O)C(NS(=O)(=O)O)C5O)C(OS(=O)(=O)O)C4O)C(NS(=O)(=O)O)C3OS(=O)(=O)O)C(O)C2O)OC(COS(=O)(=O)O)C(O)C1O (stereo not shown) [Compound 5]	same protamine reversibility as UFH and greater reversibility than LOVENOX®; also recorded: can be reversed by protamine	28 nM
O=C(O)C1OC(OC2C(COS(=O)(=O)O)OC(OC3C(C(=O)O)OC(OC4C(COS(=O)(=O)O)OC(OC5C(C(=O)O)OC(Oc6ccc([N+](=O)[O-])cc6)C(O)C5O)C(NS(=O)(=O)O)C4O)C(OS(=O)(=O)O)C3O)C(NS(=O)(=O)O)C2OS(=O)(=O)O)C(O)C(O)C1OC1OC(COS(=O)(=O)O)C(O)C(O)C1NS(=O)(=O)O (stereo not shown) [Compound 1]	Unlike Compounds 1, 2, and 3, Compound 4 was partially reversed by protamine	7 nM
CC(=O)NC1C(OC2C(C(=O)O)OC(OC3C(COS(=O)(=O)O)OC(OC4C(C(=O)O)OC(OC5C(COS(=O)(=O)O)OC(OC6C(C(=O)O)OC(OC7C(COS(=O)(=O)O)OC(OC8C(C(=O)O)OC(OC9C(COS(=O)(=O)O)OC(OC%10C(C(=O)O)OC(OC%11C(COS(=O)(=O)O)OC(OC%12C(C(=O)O)OC(Oc%13ccc([N+](=O)[O-])cc%13)C(O)C%12O)C(NS(=O)(=O)O)C%11O)C(OS(=O)(=O)O)C%10O)C(NS(=O)(=O)O)C9O)C(OS(=O)(=O)O)C8O)C(NS(=O)(=O)O)C7O)C(OS(=O)(=O)O)C6O)C(NS(=O)(=O)O)C5O)C(OS(=O)(=O)O)C4O)C(NS(=O)(=O)O)C3OS(=O)(=O)O)C(O)C2O)OC(COS(=O)(=O)O)C(O)C1O (stereo not shown) [Compound 4]	partially reversed by protamine	30 nM
O=C(O)C1OC(OC2C(COS(=O)(=O)O)OC(OC3C(C(=O)O)OC(OC4C(COS(=O)(=O)O)OC(OC5C(C(=O)O)OC(OC6C(COS(=O)(=O)O)OC(OC7C(C(=O)O)OC(OC8C(COS(=O)(=O)O)OC(OC9C(C(=O)O)OC(Oc%10ccc([N+](=O)[O-])cc%10)C(O)C9O)C(NS(=O)(=O)O)C8O)C(OS(=O)(=O)O)C7O)C(NS(=O)(=O)O)C6O)C(OS(=O)(=O)O)C5O)C(NS(=O)(=O)O)C4O)C(OS(=O)(=O)O)C3O)C(NS(=O)(=O)O)C2OS(=O)(=O)O)C(O)C(O)C1OC1OC(COS(=O)(=O)O)C(O)C(O)C1NS(=O)(=O)O (stereo not shown) [Compound 3]	Unlike Compounds 1, 2, and 3, Compound 4 was partially reversed by protamine	5 nM
